Measurements taken from article PMC5610306, “Identification of a specific agonist of human TAS2R14 from Radix Bupleuri through virtual screening, functional evaluation and binding studies” (Scientific Reports, 2017).
Where two headings read alike, the source gives them in different places. Blank lines part the entries; values can stand above or below the compound they belong to.

Tests used:
TAS2R14 [1] = biological target: T1, TAS2R14 (Homo sapiens, UniProt Q9NYV8); test: Fluo-4 calcium mobilization, HEK293-TAS2R14-G16gust44 cells; type: cell-based
T1 construct: full-length cDNA, stably expressed in HEK293 cells with chimeric G16gust44 (G alpha 16 fused with 44 amino acids of gustducin)
T1 sequence (Q9NYV8 1-317): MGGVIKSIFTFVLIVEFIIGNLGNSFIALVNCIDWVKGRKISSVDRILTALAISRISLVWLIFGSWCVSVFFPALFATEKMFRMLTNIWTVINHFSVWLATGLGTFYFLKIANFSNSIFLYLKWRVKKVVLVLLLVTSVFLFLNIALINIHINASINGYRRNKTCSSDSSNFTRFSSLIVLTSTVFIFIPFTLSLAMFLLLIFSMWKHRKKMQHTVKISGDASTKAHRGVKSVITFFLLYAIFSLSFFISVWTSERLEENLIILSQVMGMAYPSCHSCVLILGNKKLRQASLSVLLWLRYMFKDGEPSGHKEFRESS

TAS2R14 [2] = biological target: T1, TAS2R14; test: Fluo-4 calcium mobilization, antagonist mode, HEK293-TAS2R14-G16gust44 cells; type: cell-based; details: in the presence of 10.0 μM aristolochic acid A as agonist, 37 °C, 2.5 mM probenecid in loading buffer

Compound: COc1cccc2c1cc([N+](=O)[O-])c1c(C(=O)O)cc3c(c12)OCO3 [AAA, aristolochic acid A]
- EC50 (TAS2R14 [1]): 2 µM

- EC50 (TAS2R14 [1]; read-out: EC50): 4.9 µM
Compound: C[C@H]1O[C@@H](O[C@H]2CC[C@@]3(C)[C@@H](CC[C@]4(C)[C@@H]3C=CC3=C5CC(C)(C)CC[C@]5(CO)C(O)C[C@]34C)[C@]2(C)CO)[C@H](O)[C@@H](O[C@@H]2O[C@H](CO)[C@@H](O)[C@H](O)[C@H]2O)[C@H]1O (stereo partly drawn) [SSb, Saikosaponin b]

- IC50 (TAS2R14 [2]): 18.5 µM
Compound: sulfamoyl-benzoic acid [SBA]
